{"source": "paper PMC7238241", "about": "“Lack of Correlation between In Vitro and In Vivo Studies on the Inhibitory Effects of (‒)-Sophoranone on CYP2C9 Is Attributable to Low Oral Absorption and Extensive Plasma Protein Binding of (‒)-Sophoranone” (Pharmaceutics, 2020)", "key": {"CYP2C19": {"target": "T1, CYP2C19 (Homo sapiens, UniProt P33261)", "T1 construct": "tissue Corning Life Sciences; host or cells: pooled human liver microsomes, 150 donors", "T1 sequence (P33261 whole entry)": "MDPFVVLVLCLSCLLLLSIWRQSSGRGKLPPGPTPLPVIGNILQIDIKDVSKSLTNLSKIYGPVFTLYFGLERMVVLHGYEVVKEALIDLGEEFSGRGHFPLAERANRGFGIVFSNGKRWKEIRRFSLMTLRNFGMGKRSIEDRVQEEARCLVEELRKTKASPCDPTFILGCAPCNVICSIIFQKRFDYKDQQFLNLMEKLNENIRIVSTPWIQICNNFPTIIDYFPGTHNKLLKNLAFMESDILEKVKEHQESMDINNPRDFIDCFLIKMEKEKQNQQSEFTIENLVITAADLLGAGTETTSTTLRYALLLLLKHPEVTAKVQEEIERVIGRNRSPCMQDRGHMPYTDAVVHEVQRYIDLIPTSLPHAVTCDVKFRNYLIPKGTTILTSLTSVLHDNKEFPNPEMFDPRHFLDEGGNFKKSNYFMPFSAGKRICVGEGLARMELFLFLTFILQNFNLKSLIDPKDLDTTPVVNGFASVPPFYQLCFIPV", "assay": "Reversible CYP2C19 inhibition, cocktail assay (omeprazole 5-hydroxylase) in human liver microsomes", "format": "biochemical", "conditions": "human liver microsomes 0.1 mg/mL, omeprazole probe, n = 3", "method": "(§1) The inhibitory effects of SPN on CYP1A2, CYP2A6, CYP2B6, CYP2C8, CYP2C9, CYP2C19, CYP2D6, CYP2E1, and CYP3A4 were evaluated in pooled human liver microsomes through the use of specific CYP probe substrates (cocktail assay), as previously described with a slight modification. Concentrations of each CYP probe in Table 1 were used close to their reported Km values.\nBriefly, a 90-µL incubation mixture, including pooled human liver microsomes (final concentration 0.1 mg/mL), 50 mM phosphate buffer (pH 7.4), each CYP-probe substrate cocktail set, and SPN (0–50 μM), was pre-incubated for 5 min at 37 °C. SPN was dissolved in methanol and spiked into the incubation mixture to a final concentration of 0.5% methanol. […]\n(§2) The IC50 values were calculated via nonlinear least-squares regression analysis from logarithmic plots of inhibitor concentration versus percentage of activity remaining after inhibition, using SigmaPlot (ver. 14.0; Systat Software Inc, Chicago, IL, USA). The Ki values were determined from the equations for a single substrate single inhibitor model and the software available in the SigmaPlot Enzyme Kinetics module. Competitive, non-competitive, uncompetitive, or mixed inhibition models were evaluated and ranked according to the best fit based on Akaike Information Criterion (AIC) values. […]"}, "CYP3A4 [1]": {"test_system": "CYP3A4", "set-up": "method as in PMID 29753067", "conditions": "cited from earlier work"}, "[2]": {"assay": "Unbound fraction in human plasma (rapid equilibrium dialysis)", "format": "in vitro ADME", "method": "The plasma or liver microsomal protein bindings were performed using a rapid equilibrium dialysis device and cellulose membranes with a molecular weight cutoff of 8000 (Thermo Scientific, Rockford, IL, USA). The rat and human plasma samples (200 μL) containing SPN at 10 and 50 μM, respectively, were dialyzed against a dialysis buffer, phosphate-buffered saline (PBS, 400 μL). The loaded dialysis plate was covered with sealing tape, placed on an orbital shaker at approximately 200 rpm, and incubated at 37 °C for 4 h. Thereafter, samples (100 μL) from both PBS and plasma chambers were collected and mixed with an equal volume of blank plasma and PBS, respectively. All samples were stored at −80 °C until LC-MS/MS analysis. The unbound fraction of SPN in human (or rat) plasma was calculated by dividing the SPN concentration in PBS by that in plasma."}, "CYP2A6": {"target": "T2, CYP2A6 (Homo sapiens, UniProt P11509)", "T2 construct": "tissue Corning Life Sciences; host or cells: pooled human liver microsomes, 150 donors", "T2 sequence (P11509 1-494)": "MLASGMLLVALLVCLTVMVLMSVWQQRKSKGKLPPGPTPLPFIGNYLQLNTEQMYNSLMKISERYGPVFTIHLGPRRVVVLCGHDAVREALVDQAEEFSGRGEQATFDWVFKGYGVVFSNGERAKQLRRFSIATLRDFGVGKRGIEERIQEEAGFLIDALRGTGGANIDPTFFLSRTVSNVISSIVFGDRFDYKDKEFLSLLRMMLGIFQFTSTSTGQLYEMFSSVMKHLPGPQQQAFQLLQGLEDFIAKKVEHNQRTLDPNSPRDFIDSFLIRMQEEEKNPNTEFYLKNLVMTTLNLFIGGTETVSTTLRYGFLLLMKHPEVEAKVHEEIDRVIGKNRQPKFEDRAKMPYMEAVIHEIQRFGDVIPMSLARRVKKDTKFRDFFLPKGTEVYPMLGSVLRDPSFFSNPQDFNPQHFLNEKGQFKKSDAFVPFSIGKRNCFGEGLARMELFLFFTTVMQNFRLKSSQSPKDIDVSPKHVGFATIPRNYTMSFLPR", "assay": "Reversible CYP2A6 inhibition, cocktail assay (coumarin 7-hydroxylase) in human liver microsomes", "format": "biochemical", "method": "as §1\nBriefly, a 90-µL incubation mixture, including pooled human liver microsomes (final concentration 0.1 mg/mL), 50 mM phosphate buffer (pH 7.4), each CYP-probe substrate cocktail set, and SPN (0–50 μM), was pre-incubated for 5 min at 37 °C. SPN was dissolved in methanol and spiked into the incubation mixture to a final concentration of 0.5% methanol. All P450-selective substrates (except coumarin due to solubility) were dissolved in methanol and serially diluted with methanol to the required concentrations, and the organic solvent was subsequently evaporated under a gentle stream of N2 gas to minimize the effects of organic solvents on CYP activities. On the other hand, coumarin dissolved in 50 mM phosphate buffer (pH 7.4) was directly added into the mixed tube. The reaction was initiated by adding 10-µL aliquot of NADPH-generating system (1.3 mM NADP^+, 3.3 mM glucose 6-phosphate, 3.3 mM MgCl2, and 0.4 unit/mL glucose-6-phosphate dehydrogenase) before 15 min incubation at 37 °C in a shaking water bath. […]\nas §2"}, "CYP3A4 [3]": {"target": "T3, CYP3A4 (Homo sapiens, UniProt P08684)", "T3 construct": "tissue Corning Life Sciences; host or cells: pooled human liver microsomes, 150 donors", "T3 sequence (P08684 whole entry)": "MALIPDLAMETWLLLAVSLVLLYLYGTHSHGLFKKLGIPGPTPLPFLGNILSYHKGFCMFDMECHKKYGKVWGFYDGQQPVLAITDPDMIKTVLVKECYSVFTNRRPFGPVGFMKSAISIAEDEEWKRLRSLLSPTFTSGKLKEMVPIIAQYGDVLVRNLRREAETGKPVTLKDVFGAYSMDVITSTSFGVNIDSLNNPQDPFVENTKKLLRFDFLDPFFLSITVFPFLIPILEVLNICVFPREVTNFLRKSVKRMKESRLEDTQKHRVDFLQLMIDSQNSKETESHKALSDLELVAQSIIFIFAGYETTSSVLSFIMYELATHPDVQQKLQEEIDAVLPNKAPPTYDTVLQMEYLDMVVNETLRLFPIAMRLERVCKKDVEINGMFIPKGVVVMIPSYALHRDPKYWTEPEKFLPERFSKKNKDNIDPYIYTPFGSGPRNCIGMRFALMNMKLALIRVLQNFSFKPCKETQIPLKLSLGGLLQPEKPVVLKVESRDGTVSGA", "assay": "Inhibition of CYP3A4-catalyzed testosterone 6β-hydroxylation", "format": "biochemical", "conditions": "data not shown", "description": "The reversible inhibition of SPN-mediated CYP3A4 activity was less consistent with the published literature. […] They only focused on the in vitro inhibitory potentials of several flavonoids against CYP3A4 activity. To the best of our knowledge, to date, bufalin has not been used as the in vitro probe substrate for the CYP3A4 activity, and the reference material of 5′-hydroxybufalin is not commercially available. Because of the presence of several binding regions within the CYP3A4 active site, multiple probe substrates are often used for in vitro CYP3A4-mediated drug–drug interaction studies, including midazolam, nifedipine, and testosterone. […] Altogether, the in vitro CYP3A4 inhibition by SPN seemed to be substrate-specific."}}, "note": "Where two headings read alike, the source gives them in different places.", "data": [{"smiles": "CC(C)=CCc1cc([C@@H]2CC(=O)c3ccc(O)c(CC=C(C)C)c3O2)cc(CC=C(C)C)c1O", "note": "[SPN, (‒)-Sophoranone]", "values": [{"measurement": "IC50", "setting": "CYP2C19", "result": "16.8 ± 3.21", "unit": "µM"}, {"measurement": "IC50", "setting": "CYP3A4 [1]; range over other CYP3A4 substrates", "result": "5.62 to 38.4", "unit": "µM"}, {"measurement": "Ki", "setting": "CYP3A4 [1]; read-out: Ki, CYP3A4-catalyzed bufalin 5′-hydroxylation", "result": "2.17 ± 0.29", "unit": "µM"}, {"measurement": "fraction unbound at 4 h, 10 µM", "setting": "[2]; human, human plasma, 10 μM, 37 °C, 4 h, n = 3, read-out: free fraction in human plasma", "result": "0.000457 ± 6.12e-05"}, {"measurement": "fraction unbound at 4 h, 50 µM", "setting": "[2]; human, human plasma, 50 μM, 37 °C, 4 h, n = 3, read-out: free fraction in human plasma", "result": "0.000927 ± 0.0004"}, {"measurement": "fraction unbound at 4 h", "setting": "[2]; human, human plasma, 10 and 50 μM, read-out: plasma protein binding, human", "result": "< 0.001"}, {"measurement": "fraction unbound at 4 h", "setting": "[2]; mean over human and rat plasma in the range of 10 and 50 μM, read-out: mean unbound fraction in plasma", "result": 0.000574}, {"measurement": "residual enzyme activity, CYP2A6", "setting": "CYP2A6; at the highest tested concentration (50 μM)", "result": "greater than 80%"}, {"measurement": "IC50", "setting": "CYP2A6; human liver microsomes 0.1 mg/mL, cocktail assay, coumarin probe, n = 3, read-out: IC50 Values, CYP2A6", "result": "> 50", "unit": "µM"}, {"measurement": "IC50", "setting": "CYP3A4 [3]", "result": "31.5 ± 4.79", "unit": "µM"}]}]}
